Experimental findings from US6184230A, “Anti-helicobacter pylori pharmaceutical composition” (Yamanouchi Pharmaceutical Co., Ltd., priority 1997, dated 2001) are described below.

Holding throughout (type): cell-based
The subject of experiment [1] is Staphylococcus aureus FDA 209P. Description: In vitro test on facultative anaerobes and aerobes (MIC), Example 3. Particulars: FDA209P, Muller-Hinton agar, 37° C., 18 hours. The protocol:
(§1) An in vitro test on facultative anaerobes and aerobes was carried out in the following manner.
(§2) Preparation of Antibacterial Substance-containing Agar Plate
(§3) The substance to be evaluated was dissolved in 100% dimethyl sulfoxide (DMSO) and diluted by 2-fold serial dilution. Each of the dilution solutions was put into a sterilized round Petri dish and mixed with 10 ml of Muller-Hinton agar medium which had been sterilized and kept at 50° C., and the mixture was solidified. Final concentration of DMSO becomes 1% or less.
(§4) Preparation of Inoculation Material and Judgment of Test Results
(§5) Each strain to be tested was cultured overnight in an incubator set at 37° C. using Muller-Hinton broth, and the resulting broth was diluted to a density of about 10^6 cells/1 ml using Muller-Hinton broth. About 5 μl portion of the dilution was inoculated onto the surface of the drug-containing agar medium using a microplanter. The thus inoculated agar plate was cultured at 37° C. for 18 hours in an incubator. After completion of the culturing, the agar plate was observed, and the minimum drug concentration by which cell growth was not observed was defined as MIC.

Experiment [2] concerns Pseudomonas aeruginosa NCTC 10490. The description is as above. Particulars: NCTC10490; Pseudomonas aeruginosa NCTC 10490, Muller-Hinton agar, 37° C., 18 hours. The protocol:
as §1, §2, §3, §4, §5

A further experiment deals with Escherichia coli 0-1. The description is as above. Particulars: 01; Escherichia coli 0-1, Muller-Hinton agar, 37° C., 18 hours. The protocol: as §1, §2, §3, §4, §5
The test system of experiment [3] is Bifidobacterium bifidum CAYA 21-1. Description: In vitro test on anaerobes (MIC), Example 4. The conditions noted are these: CAYA211, 18 h. How it is done: (§6) An in vitro test on anaerobes was carried out in the following manner.
as §2
(§7) The substance to be evaluated was dissolved in 100% dimethyl sulfoxide (DMSO) and diluted by 2-fold serial dilution. Each of the dilution solutions was put into a sterilized round Petri dish and mixed with 10 ml of GAM agar medium which had been sterilized and kept at 50° C., and the mixture was solidified. Final concentration of DMSO becomes 1% or less.
as §4
(§8) Each strain to be tested was cultured overnight at 37° C. in GAM broth using an anaerobic culturing apparatus whose inside atmosphere had been replaced with a mixed gas system of 80% N2, 10% CO2 and 10% H2, and the resulting broth was diluted to a density of about 10^6 cells/1 ml using the same GAM broth. About 5 μl portion of the dilution was inoculated onto the surface of the drug-containing agar medium using a microplanter. The thus inoculated agar plate was cultured at 37° C. for 18 hours using the anaerobic culturing apparatus. After completion of the culturing, the agar plate was observed, and the minimum drug concentration by which cell growth was not observed was defined as MIC.

Experiment [4] has as its system Bacteroides fragiris GAI 5562. Description: In vitro test on anaerobes (MIC), Example 4. The conditions noted are these: GAI5562, 18 h. How it is done: as §6, §2, §7, §4, §8
Experiment [5] concerns Peptostreptococcus productus CAYA 12-2. Description: In vitro test on anaerobes (MIC), Example 4. Particulars: Blautia producta, CAYA122, 18 h. The protocol: as §6, §2, §7, §4, §8
Experiment [6] relates to Helicobacter pylori ATCC 43504. Description: Measurement of antibacterial activity (in vitro, MIC on Brucella agar), Example 2. The conditions noted are these: ATCC43504, Brucella agar medium (0.1% β-cyclodextrin), 37° C., 3 days (72 hours), N2 80%, CO2 15%, O2 5%. How it is done: An in vitro test of the aforementioned substance was carried out in the following manner.
Measurement of antibacterial activity
as §2
The substance to be evaluated was dissolved in 100% dimethyl sulfoxide (DMSO) and diluted by 2-fold serial dilution. Each of the dilution solutions was put into a sterilized round Petri dish and mixed with 10 ml of Brucella agar medium (0.1% β-cyclodextrin) which had been sterilized and kept at 50° C., and the mixture was solidified. Final concentration of DMSO becomes 1% or less.
as §4
A Helicobacter pylori strain, for example Helicobacter pylori ATCC 43504, was cultured at 37° C. for 3 days in a multi gas incubator (N2 : 80%, CO2 : 15%, O2: 5 %) using Brucella agar medium (containing 5% calf serum albumin) and then prepared into a cell suspension of about 10^8 cells/1 ml using Brucella broth based on its turbidity. The cell suspension was diluted 100 times with Brucella broth, and about 5 μl portion of the dilution was inoculated onto the surface of the drug-containing agar medium using a microplanter. The thus inoculated agar plate was cultured at 37° C. for 3 days (72 hours) in the aforementioned multi gas incubator. […]

The next experiment concerns other bacteria. The experiment is described as follows: Selectivity, influence upon other bacteria (general statement).
The subject of another experiment is Helicobacter pylori. Description: Anti-Helicobacter pylori activity (general statement).

Values after ≈ are worked out from the molar mass of the structure shown.

Broadly, the MIC is the lowest concentration found to suppress growth. Low readings indicate a more susceptible organism, high ones a less susceptible organism. As for `CCCCCC/C=C/Cc1c(C)c(=O)c2ccccc2n1O` [1-hydroxy-2-(2-trans-nonenyl)-3-methyl-4(1H)-quinolone], the minimum inhibitory concentration (MIC) is not below 12.5 µg/mL in experiment [1]; not below 12.5 µg/mL in experiment [2]; not below 12.5 µg/mL in the experiment with Escherichia coli 0-1; more than 25 µg/mL in [3]; more than 25 µg/mL in experiment [4]; more than 25 µg/mL in experiment [5]. The same compound had an MIC in [6] of 0.025 µg/mL (≈ 0.0835 µM).

Regarding `CCCCCC/C=C/Cc1c(C)c(=O)c2ccccc2n1O` [YL-02729S], in the experiment on other bacteria, the “influences upon other bacteria” value is on record as “does not exert influences upon other bacteria” and the selectivity result is given as “high selectivity”. Further, the anti-Helicobacter pylori activity result in the experiment on Helicobacter pylori was “excellent anti-Helicobacter pylori activity”.
